ChEMBL document CHEMBL5550090, “Synthesis and biological evaluation of 1H-pyrrolo[3,2-g]isoquinolines” (Bioorg Med Chem, 2024)

Experiments:
[1] = target: Dual specificity protein kinase CLK1 (Mus musculus) (UniProt P22518); experiment: Inhibition of recombinant mouse CLK1 expressed in bacteria assessed as enzyme residual activity using GRSRSRSRSRSR as substrate at 10 uM incubated for 30 mins in presence of ATP by ADP-Glo kinase assay
[2] = target: Dual specificity protein kinase CLK1 (Mus musculus) (UniProt P22518); experiment: Inhibition of recombinant mouse CLK1 expressed in bacteria assessed as enzyme residual activity using GRSRSRSRSRSR as substrate at 1 uM incubated for 30 mins in presence of ATP by ADP-Glo kinase assay
[3] = target: Dual specificity tyrosine-phosphorylation-regulated kinase 1A (Rattus norvegicus) (UniProt Q63470); experiment: Inhibition of recombinant rat DYRK1A kinase domain (1 to 499 residues) expressed in bacteria assessed as enzyme residual activity using KKISGRLSPIMTEQ as substrate at 10 uM incubated for 30 mins in presence of ATP by ADP-Glo kinase assay
[4] = target: Dual specificity tyrosine-phosphorylation-regulated kinase 1A (Rattus norvegicus) (UniProt Q63470); experiment: Inhibition of recombinant rat DYRK1A kinase domain (1 to 499 residues) expressed in bacteria assessed as enzyme residual activity using KKISGRLSPIMTEQ as substrate at 1 uM incubated for 30 mins in presence of ATP by ADP-Glo kinase assay
[5] = target: T1, CDK9/cyclin T1 (Homo sapiens) (UniProt O60563+P50750); experiment: Inhibition of human recombinant CDK9/cyclin T expressed in baculovirus-infected Sf9 cells assessed as enzyme residual activity using YSPTSPSYSPTSPSYSPTSPSKKKK as substrate at 10 uM incubated for 30 mins in presence of ATP by ADP-Glo kinase assay
[6] = target: T1, CDK9/cyclin T1 (Homo sapiens); experiment: Inhibition of human recombinant CDK9/cyclin T expressed in baculovirus-infected Sf9 cells assessed as enzyme residual activity using YSPTSPSYSPTSPSYSPTSPSKKKK as substrate at 1 uM incubated for 30 mins in presence of ATP by ADP-Glo kinase assay
[7] = target: Glycogen synthase kinase-3 beta (Homo sapiens) (UniProt P49841); experiment: Inhibition of human recombinant GSK-3 beta expressed in baculovirus-infected Sf9 cells assessed as enzyme residual activity using YRRAAVPPSPSLSRHSSPHQSpEDEEE as substrate at 10 uM incubated for 30 mins in presence of ATP by ADP-Glo kinase assay
Glycogen synthase kinase-3 beta (Homo sapiens), sequence (P49841 whole entry, looked up, canonical isoform): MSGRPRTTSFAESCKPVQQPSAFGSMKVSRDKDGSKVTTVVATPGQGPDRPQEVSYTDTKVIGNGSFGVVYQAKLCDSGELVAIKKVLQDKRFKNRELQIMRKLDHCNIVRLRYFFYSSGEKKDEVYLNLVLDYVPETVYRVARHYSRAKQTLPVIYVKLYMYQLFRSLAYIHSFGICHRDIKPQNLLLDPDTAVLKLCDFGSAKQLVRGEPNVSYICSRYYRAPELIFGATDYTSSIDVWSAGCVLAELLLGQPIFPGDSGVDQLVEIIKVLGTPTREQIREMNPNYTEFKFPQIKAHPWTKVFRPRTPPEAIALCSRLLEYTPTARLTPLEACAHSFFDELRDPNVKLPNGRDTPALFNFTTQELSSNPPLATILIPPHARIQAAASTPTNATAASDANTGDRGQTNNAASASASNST

[8] = target: Glycogen synthase kinase-3 beta (Homo sapiens) (UniProt P49841); experiment: Inhibition of human recombinant GSK-3 beta expressed in baculovirus-infected Sf9 cells assessed as enzyme residual activity using YRRAAVPPSPSLSRHSSPHQSpEDEEE as substrate at 1 uM incubated for 30 mins in presence of ATP by ADP-Glo kinase assay
[9] = target: Casein kinase I isoform epsilon (Homo sapiens) (UniProt P49674); experiment: Inhibition of human recombinant CK1 epsilon expressed in baculovirus-infected Sf9 cells assessed as enzyme residual activity using RRKHAAIGSpAYSITA as substrate at 10 uM incubated for 30 mins in presence of ATP by ADP-Glo kinase assay
Casein kinase I isoform epsilon (Homo sapiens), sequence (P49674 whole entry, looked up, canonical isoform): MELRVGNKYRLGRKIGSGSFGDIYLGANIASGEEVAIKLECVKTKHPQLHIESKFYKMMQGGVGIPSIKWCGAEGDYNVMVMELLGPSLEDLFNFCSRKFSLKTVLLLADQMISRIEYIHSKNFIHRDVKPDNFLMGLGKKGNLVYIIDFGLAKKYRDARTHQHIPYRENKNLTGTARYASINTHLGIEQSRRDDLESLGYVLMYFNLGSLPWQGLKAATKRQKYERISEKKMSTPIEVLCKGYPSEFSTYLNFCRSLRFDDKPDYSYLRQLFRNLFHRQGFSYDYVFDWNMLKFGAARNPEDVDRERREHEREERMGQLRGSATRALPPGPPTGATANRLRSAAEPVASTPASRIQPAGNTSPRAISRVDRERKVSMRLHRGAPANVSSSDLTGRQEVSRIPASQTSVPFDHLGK

[10] = target: Casein kinase I isoform epsilon (Homo sapiens) (UniProt P49674); experiment: Inhibition of human recombinant CK1 epsilon expressed in baculovirus-infected Sf9 cells assessed as enzyme residual activity using RRKHAAIGSpAYSITA as substrate at 1 uM incubated for 30 mins in presence of ATP by ADP-Glo kinase assay
[11] = target: T2, Cyclin-dependent kinase 5/CDK5 activator 1 (Homo sapiens) (UniProt Q00535+Q15078); experiment: Inhibition of human recombinant CDK5/p25 expressed in bacteria assessed as enzyme residual activity using histone H1 as substrate at 10 uM incubated for 30 mins in presence of ATP by ADP-Glo kinase assay
T2 sequence (Q00535 whole entry): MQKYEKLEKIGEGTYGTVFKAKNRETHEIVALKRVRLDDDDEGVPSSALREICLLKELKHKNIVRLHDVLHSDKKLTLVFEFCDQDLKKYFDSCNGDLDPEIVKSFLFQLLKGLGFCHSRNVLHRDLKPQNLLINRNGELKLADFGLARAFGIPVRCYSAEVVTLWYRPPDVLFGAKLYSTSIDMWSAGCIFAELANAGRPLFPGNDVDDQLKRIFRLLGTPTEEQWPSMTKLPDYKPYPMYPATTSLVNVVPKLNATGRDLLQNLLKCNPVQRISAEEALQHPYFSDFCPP
T2 sequence (Q15078 99-307 partner limits assumed): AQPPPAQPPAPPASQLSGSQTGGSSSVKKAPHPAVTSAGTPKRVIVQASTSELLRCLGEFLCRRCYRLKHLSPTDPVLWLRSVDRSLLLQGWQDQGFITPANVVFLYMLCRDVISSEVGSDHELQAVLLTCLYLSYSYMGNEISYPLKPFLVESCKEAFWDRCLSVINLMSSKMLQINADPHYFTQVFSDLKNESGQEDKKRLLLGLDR

[12] = target: T2, Cyclin-dependent kinase 5/CDK5 activator 1 (Homo sapiens); experiment: Inhibition of human recombinant CDK5/p25 expressed in bacteria assessed as enzyme residual activity using histone H1 as substrate at 1 uM incubated for 30 mins in presence of ATP by ADP-Glo kinase assay
[13] = target: T3, Serine/threonine-protein kinase pim-1 (Homo sapiens, UniProt P11309); experiment: Inhibition of human recombinant PIM-1 expressed in bacteria assessed as enzyme residual activity using histone H1 as substrate at 10 uM incubated for 30 mins in presence of ATP by ADP-Glo kinase assay
T3 sequence (P11309 whole entry, looked up): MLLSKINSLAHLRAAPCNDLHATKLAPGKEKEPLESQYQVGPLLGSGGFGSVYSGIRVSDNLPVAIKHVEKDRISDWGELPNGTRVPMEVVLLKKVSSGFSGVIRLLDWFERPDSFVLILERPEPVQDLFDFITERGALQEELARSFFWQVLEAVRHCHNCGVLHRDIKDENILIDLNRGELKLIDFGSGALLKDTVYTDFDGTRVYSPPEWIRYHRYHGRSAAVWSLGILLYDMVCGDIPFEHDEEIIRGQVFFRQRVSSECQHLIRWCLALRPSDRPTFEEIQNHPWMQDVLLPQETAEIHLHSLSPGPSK

[14] = target: T3, Serine/threonine-protein kinase pim-1; experiment: Inhibition of human recombinant PIM-1 expressed in bacteria assessed as enzyme residual activity using histone H1 as substrate at 1 uM incubated for 30 mins in presence of ATP by ADP-Glo kinase assay
[15] = target: T4, Serine/threonine-protein kinase haspin (Homo sapiens, UniProt Q8TF76); experiment: Inhibition of recombinant human Haspin kinase domain (470 to 798 residues) expressed in bacteria using histone H3 (1 to 21) peptide as substrate incubated for 30 mins in presence of ATP by ADP-Glo kinase assay
T4 sequence (Q8TF76 whole entry): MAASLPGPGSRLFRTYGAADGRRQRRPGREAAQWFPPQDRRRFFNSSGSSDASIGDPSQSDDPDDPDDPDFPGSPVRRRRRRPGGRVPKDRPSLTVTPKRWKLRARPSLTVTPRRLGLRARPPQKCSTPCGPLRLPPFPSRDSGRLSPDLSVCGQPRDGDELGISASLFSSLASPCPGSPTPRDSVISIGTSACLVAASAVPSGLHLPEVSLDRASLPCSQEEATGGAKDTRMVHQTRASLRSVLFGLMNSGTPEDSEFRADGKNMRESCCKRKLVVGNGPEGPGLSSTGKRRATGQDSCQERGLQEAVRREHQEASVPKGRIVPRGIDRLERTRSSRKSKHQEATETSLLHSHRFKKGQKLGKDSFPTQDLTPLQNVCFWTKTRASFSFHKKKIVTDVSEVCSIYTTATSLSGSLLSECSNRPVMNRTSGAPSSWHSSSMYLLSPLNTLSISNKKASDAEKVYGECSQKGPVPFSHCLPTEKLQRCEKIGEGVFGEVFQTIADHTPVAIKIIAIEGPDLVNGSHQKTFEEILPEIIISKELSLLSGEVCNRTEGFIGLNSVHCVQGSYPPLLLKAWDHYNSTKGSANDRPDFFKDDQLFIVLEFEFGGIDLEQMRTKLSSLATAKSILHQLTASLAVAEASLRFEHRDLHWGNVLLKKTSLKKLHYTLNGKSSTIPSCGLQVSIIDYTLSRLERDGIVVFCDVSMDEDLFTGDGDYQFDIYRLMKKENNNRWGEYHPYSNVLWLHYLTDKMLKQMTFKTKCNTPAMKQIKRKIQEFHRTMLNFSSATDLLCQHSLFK

Dual specificity protein kinase CLK1 (Mus musculus), sequence (P22518 whole entry, looked up, the tested form may be a part): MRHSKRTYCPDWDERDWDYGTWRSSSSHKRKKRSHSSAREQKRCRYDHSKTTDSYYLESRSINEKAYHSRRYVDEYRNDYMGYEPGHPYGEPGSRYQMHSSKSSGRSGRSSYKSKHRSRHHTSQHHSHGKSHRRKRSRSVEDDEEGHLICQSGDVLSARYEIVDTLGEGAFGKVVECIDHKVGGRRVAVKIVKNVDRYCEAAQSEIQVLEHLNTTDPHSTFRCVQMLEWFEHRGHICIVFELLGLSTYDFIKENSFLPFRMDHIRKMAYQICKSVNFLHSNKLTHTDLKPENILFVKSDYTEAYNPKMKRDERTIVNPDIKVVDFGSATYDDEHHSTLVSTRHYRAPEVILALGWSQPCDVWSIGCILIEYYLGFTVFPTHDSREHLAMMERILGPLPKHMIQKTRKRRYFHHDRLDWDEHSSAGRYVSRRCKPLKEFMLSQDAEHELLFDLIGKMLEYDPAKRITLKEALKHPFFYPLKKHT

Row | SMILES | Activity [1] [%] | Activity [2] [%] | Activity [3] [%] | Activity [4] [%] | Activity [5] [%] | Activity [6] [%] | Activity [7] [%] | Activity [8] [%] | Activity [9] [%] | Activity [10] [%] | Activity [11] [%] | Activity [12] [%] | Activity [13] [%] | Activity [14] [%] | IC50 [15] [nM]
1 | Nc1cc2cc3ccncc3cc2[nH]1 | 20 | 73 | 39 | 100 | 27 | 74 | 64 | 69 | 52 | 79 | 99 | 89 | 88 | 100 | –
2 | CCN(CC)Cc1c[nH]c2cc3cnccc3cc12 | 84 | 89 | 76 | 89 | 51 | 86 | 77 | 79 | 100 | 98 | 100 | – | 47 | 65 | –
3 | NCc1c[nH]c2cc3cnccc3cc12 | 86 | 99 | 62 | 77 | 58 | 93 | 80 | 94 | 96 | 99 | 94 | 100 | 84 | 97 | –
4 | c1cc2cc3cc[nH]c3cc2cn1 | 67 | 87 | 37 | 99 | 34 | 76 | 100 | 100 | 90 | 97 | 98 | 100 | 45 | 90 | –
5 | OCc1c[nH]c2cc3cnccc3cc12 | 55 | 96 | 62 | 77 | 55 | 81 | 81 | 84 | 98 | 100 | 94 | – | 100 | 100 | 819
6 | COc1ncc2cc3cnccc3c([N+](=O)[O-])c2n1 | 8 | – | 20 | – | 43 | – | 29 | – | 53 | – | 80 | – | 55 | – | –
7 | Cn1cc(I)c2cc3ccncc3cc21 | 22 | 61 | 14 | 46 | 26 | 57 | 60 | 81 | 72 | 100 | 22 | 95 | 26 | 48 | 243
8 | Cn1ccc2cc3ccncc3cc21 | 58 | 92 | 29 | 67 | 60 | 89 | 83 | 100 | 85 | 92 | 38 | 53 | 35 | 67 | ~1000
9 | Clc1c[nH]c2cc3cnccc3cc12 | 39 | 78 | 21 | 61 | 25 | 62 | 82 | 92 | 82 | 100 | 68 | 100 | 16 | 63 | –
10 | CCNCc1c[nH]c2cc3cnccc3cc12 | 80 | 94 | 63 | 80 | 37 | 74 | 80 | 76 | 100 | 100 | 89 | – | 74 | 76 | –
11 | CN(C)Cc1c[nH]c2cc3cnccc3cc12 | 62 | 91 | 67 | 74 | 18 | 57 | 66 | 78 | 99 | 100 | 97 | 100 | 67 | 66 | –
12 | CNCc1c[nH]c2cc3cnccc3cc12 | 74 | 95 | 92 | – | 37 | 58 | 83 | 87 | 98 | 100 | 88 | 93 | 90 | 89 | –
13 | c1ccc(-c2c[nH]c3cc4cnccc4cc23)cc1 | 44 | 74 | 19 | 53 | 63 | 83 | 77 | 66 | 88 | 100 | 73 | 97 | 18 | 53 | 482
14 | c1cc2cc3c(-c4cncnc4)c[nH]c3cc2cn1 | 14 | 54 | 20 | 51 | 43 | 79 | 59 | 68 | 43 | 81 | 72 | 100 | 33 | 63 | 249
